Experimental data as given in patent US9127233B2, “Device and method for solubilizing, separating, removing and reacting carboxylic acids in oils, fats, aqueous or organic solutions by means of micro-or nanoemulsification” (priority 2010, dated 2015).
Read-outs that look alike come from different tables or passages of the source. One block for each compound: values may come before it.

Key:
[1] = molecular target: fatty acids bound to albumin (Homo sapiens, UniProt P02768); assay: Liberation of 3H-labeled oleic acid bound to albumin, extraction with n-hexane; details: identical procedure
Sequence of fatty acids bound to albumin (P02768 25-609): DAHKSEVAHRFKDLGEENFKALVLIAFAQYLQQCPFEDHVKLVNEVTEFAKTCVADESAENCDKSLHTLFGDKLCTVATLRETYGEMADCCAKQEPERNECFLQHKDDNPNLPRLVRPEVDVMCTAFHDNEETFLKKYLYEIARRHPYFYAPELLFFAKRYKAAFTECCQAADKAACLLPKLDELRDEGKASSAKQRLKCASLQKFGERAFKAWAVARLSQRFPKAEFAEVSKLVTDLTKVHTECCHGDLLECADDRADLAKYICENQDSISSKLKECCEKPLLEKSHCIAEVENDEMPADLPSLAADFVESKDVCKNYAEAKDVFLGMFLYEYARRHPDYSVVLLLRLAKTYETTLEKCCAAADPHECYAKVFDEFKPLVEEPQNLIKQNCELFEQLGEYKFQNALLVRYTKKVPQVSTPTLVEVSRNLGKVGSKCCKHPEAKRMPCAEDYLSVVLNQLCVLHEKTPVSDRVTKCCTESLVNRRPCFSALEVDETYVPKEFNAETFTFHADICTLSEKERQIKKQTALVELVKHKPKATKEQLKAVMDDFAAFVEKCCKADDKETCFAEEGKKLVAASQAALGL
Text: The capacity of arginine to liberate fatty acids bound to albumin was investigated by ^3H-labeled oleic acid.

[2] = cited from earlier work
[3] = Estimation of the interaction between oleic acid and the test substance; assay type: physicochemical
Experimental: Several solubilizing compounds were tested in aqueous medium for their potential to solubilize a reference fatty acid, namely oleic acid.
(§1) In the following tests oleic acid was mixed with the test substances in H2O, Subsequently, log P and pH were measured and the solubility of the test substance in H2O was estimated together with an estimation of the interaction between oleic acid and the test substance according to the scheme shown below.
(§2) The solutions were rested for 1 h and pH was measured. In case of incomplete dissolution and a pH below 7 a 1M NaOH solution was added dropwise until turbidity resolved. Then the mixtures were stirred or shaken. In order to assess the stability of the obtained micro or nanoemulsion, the solution were heated for 1 hour to 60° C. and cooled to room temperature. An other part of the clear solution was stored over night at 4° C. and then rewarmed to room temperature. Thereafter solutions were analysed for solid formation, residual oil, viscosity, turbidity, and DLS measurements were performed.
Estimation of the Interaction Between Oleic Acid and the Test Substance: • X=Interaction between oleic acid and the test substance • (X)=Interaction between oleic acid and test substance.

[4] = Estimation of solubility of the test substance in H2O; assay type: physicochemical
Experimental: as §1, §2
Estimation of Solubility: • X=Compound is completely dissolved • (X)=Compound is partially dissolved • ((X))=Compound is not dissolved (visual appearance) but there is a change in pH. Therefore it is assumed that at least a small part is dissolved. • −=insoluble

[5] = pH of aqueous solution of solubilizing compound mixed with oleic acid; assay type: physicochemical; details: solubilizing compound in water with 0.833 mol equivalents of oleic acid
Experimental: as §1
The solutions were rested for 1 h and pH was measured. In case of incomplete dissolution and a pH below 7 a 1M NaOH solution was added dropwise until turbidity resolved. Then the mixtures were stirred or shaken.

[6] = log P of the test substance; details: water (H2O), test substance mixed with oleic acid
Experimental: as §1

[7] = Dynamic laser light scattering (DLS) of oleic acid micro-/nanoemulsions; assay type: physicochemical; details: for Mean Size by Intensity: DLS, emulsion with oleic acid; for Part: percentage of the peak in the sample
Experimental: as §2
For DLS measurements a Zetasizer Nano S from Malvern (USA) was used. All measurements were repeated three times undiluted, or 1:10 and 1:100 diluted by water. For the measurements the viscosity of water and the refractory index of water were used.
Peak Maximum by Intensity: Size is directly determined from the measurement without a weighting of volume or particle number.
Peaks are presented corresponding to their percentage in the sample.
Ratio of peak maxima: Percentual distribution of particle sizes.

[8] = n-octanol and water; cited from earlier work
[9] = Influence of the pH on the solubility of oleic acid in aqueous medium; assay type: physicochemical
Experimental: At the beginning the influence of the pH on the solubility of oleic acid in aqueous medium was tested. These tests were conducted in order to exclude the possibility that the observed solubility of oleic acid was due to pH changes and not primarily because of the interaction of functional groups.

[10] = cited from earlier work; remark: listed apart in the source

Experimental for physchem: as §1

reduction of residual fatty acids as compared to arginine [1]: significantly less
Compound: NC(=O)C[C@H](N)C(=O)O [asparagine, reference compound]

Compound: sudan red
mg soluble in water [2]: unsoluble

reduction of residual fatty acids as compared to arginine [1]: significantly less
logP (physchem): -2.05
Interaction with Oleic Acid [3]: ((X))
Dissolved (H2O) [4]: (X)
pH [5]: 8.37
Compound: NC(=O)CC[C@H](N)C(=O)O [L-Glutamin, reference compound]

Compound: CO/C=C(/C(=O)OC)c1ccccc1Oc1cc(Oc2ccccc2C#N)ncn1 [azoxystrobin]
mg soluble in water [2]: 6.7 mg/L

Compound: NCCCC[C@H](N)C(=O)O [L-Lysine]
logP [6]: -3.42
Mean Size by Intensity [7]: 133 nm
Part [7]: 95.6%
reduction of residual fatty acids as compared to arginine [1]: significantly less
Interaction with Oleic Acid [3]: X, E
pH [5]: 9.56

Compound: CCCCCCCC(=O)O [octanoic acid]
log KOW [8]: 3.05

Compound: [Co+2].c1ccc2c(c1)-c1nc-2nc2[n-]c(nc3nc(nc4[n-]c(n1)c1ccccc41)-c1ccccc1-3)c1ccccc21 [co-phthalocyanine]
mg soluble in water [2]: unsoluble

solubility of oleic acid in aqueous medium ([9]; pH 14): formation of a solid precipitate
solubility of oleic acid in aqueous medium ([9]; pH range of 9-12 at room temperature): no interaction
solubility of oleic acid in aqueous medium ([9]; starting at pH 13): begins to dissolve
Compound: CCCCCCCC/C=C\CCCCCCCC(=O)O [oleic acid, cis-9-octadecenoic acid]

Compound: C1=Cc2nc1c(-c1ccccc1)c1nc(c(-c3ccccc3)c3ccc([nH]3)c(-c3ccccc3)c3ccc([nH]3)c2-c2ccccc2)C=C1 [tetraphenylporphyrin]
mg soluble in water [2]: 2 mg/L

Compound: Cl.N[C@@H](Cc1c[nH]cn1)C(=O)O.O [Histidine hydrochloride monohydrate]
Mean Size by Intensity [7]: 647 nm
Part [7]: 81.9%
reduction of residual fatty acids as compared to arginine [1]: significantly less
logP (physchem): -4.37
Interaction with Oleic Acid [3]: X, E
pH [5]: 9.30

logP (physchem): -3.52
Compound: N=C(N)NCCCC(N)C(=O)O [L-Arginine, 2-amino-5-guanidinopentanoic acid]
pKa ([10]; amino group): 8.99
pKa ([10]; carboxyl group): 1.82
